From ChEMBL document CHEMBL1201862, “PubChem BioAssay data set” (2004)
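Dose response: 5 concentrations. Exposure: 48 h. Format: 96-well plates. Endpoint: linear interpolation; highest concentration if not reached. Here, GI50 denotes the concentration required for 50% inhibition of growth.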 Calls of active or inactive are those of the source. Cut-off read from the data, not from the text of the source: active = GI50 up to about 1.1 µM and inactive = higher.

Experiments:
Experiment in all cases: DTP human tumour cell line panel, 48 h
UO-31 = test system: UO-31
HOP-92 = test system: HOP-92
A549 = test system: A549
HT-29 = test system: HT-29
RPMI-8226 = test system: RPMI-8226
SF-539 = test system: SF-539
M14 = test system: M14
EKVX = test system: EKVX
SF-268 = test system: SF-268
NCI-H460 = test system: NCI-H460
BT-549 = test system: BT-549
A498 = test system: A498
HCC 2998 = test system: HCC 2998
SNB-75 = test system: SNB-75
NCI-H522 = test system: NCI-H522
UACC-62 = test system: UACC-62
T47D = test system: T47D
DU-145 = test system: DU-145
MOLT-4 = test system: MOLT-4

Measured: GI50

O=C1CSC2(CCN(CCCN3c4ccccc4Sc4ccc(Cl)cc43)CC2)N1
inactive: UO-31 6.75 µM | HOP-92 5.55 µM | A549 10.1 µM | HT-29 3.53 µM | RPMI-8226 6.05 µM | SF-539 13.1 µM | M14 6.81 µM | EKVX 9.31 µM | SF-268 8.34 µM | NCI-H460 4.08 µM | BT-549 12.1 µM | A498 15.5 µM | HCC 2998 3.99 µM | SNB-75 7.43 µM | NCI-H522 10.1 µM | UACC-62 11.5 µM | T47D 3.57 µM | DU-145 11.9 µM

CC(C)C(N)(C(=O)O)c1ccccc1 (centres undefined)
inactive: UO-31 > 100 µM | HOP-92 > 100 µM | A549 > 100 µM | HT-29 > 100 µM | RPMI-8226 > 100 µM | M14 > 100 µM | EKVX > 100 µM | SF-268 > 100 µM | NCI-H460 > 100 µM | BT-549 > 100 µM | A498 > 100 µM | HCC 2998 > 100 µM | SNB-75 > 100 µM | NCI-H522 > 100 µM | UACC-62 > 100 µM | T47D > 100 µM | DU-145 > 100 µM

O=C(COc1ccccc1)N(C(=O)N1CCN(c2ccccc2)CC1)S(=O)(=O)c1ccccc1
inactive: UO-31 94.6 µM | HOP-92 > 100 µM | MOLT-4 25.4 µM | A549 > 100 µM | HT-29 43.5 µM | SF-539 > 100 µM | M14 > 100 µM | EKVX > 100 µM | SF-268 60.8 µM | NCI-H460 71.9 µM | BT-549 > 100 µM | A498 > 100 µM | HCC 2998 > 100 µM | SNB-75 33.9 µM | NCI-H522 31.9 µM | UACC-62 > 100 µM | T47D 34.8 µM | DU-145 98.6 µM

N#C/C(C(=O)Nc1ccccc1)=C(/N)N1CCOCC1
inactive: UO-31 > 100 µM | HOP-92 > 100 µM | MOLT-4 > 100 µM | A549 > 100 µM | RPMI-8226 > 100 µM | SF-539 > 100 µM | M14 > 100 µM | EKVX > 100 µM | NCI-H460 > 100 µM | BT-549 > 100 µM | A498 > 100 µM | HCC 2998 > 100 µM | SNB-75 > 100 µM | UACC-62 > 100 µM | T47D > 100 µM | DU-145 > 100 µM

CCOC(=O)c1nc2ccc(C(F)(F)F)cc2nc1Oc1ccc(C#N)cc1
inactive: UO-31 40.3 µM | HOP-92 17 µM | MOLT-4 > 100 µM | HT-29 23.3 µM | RPMI-8226 > 100 µM | SF-539 19.5 µM | M14 18.5 µM | EKVX 14 µM | SF-268 15.5 µM | NCI-H460 46.7 µM | BT-549 18.8 µM | A498 23.3 µM | HCC 2998 61.4 µM | SNB-75 14.5 µM | UACC-62 19.1 µM | T47D 28.4 µM | DU-145 18.5 µM

C/C(=N\N=C(\N)SB(F)F)c1ccc2ccccc2c1
inactive: UO-31 > 100 µM | HOP-92 > 100 µM | A549 > 100 µM | HT-29 > 100 µM | SF-539 > 100 µM | M14 > 100 µM | EKVX > 100 µM | SF-268 86.5 µM | NCI-H460 > 100 µM | BT-549 > 100 µM | A498 > 100 µM | HCC 2998 > 100 µM | SNB-75 > 100 µM | NCI-H522 25.6 µM | UACC-62 > 100 µM | T47D > 100 µM | DU-145 > 100 µM

O=C(c1ccc(Cl)cc1)N(C(=S)OC12CC3CC(CC(C3)C1)C2)c1ccccc1
inactive: UO-31 27 µM | HOP-92 34 µM | MOLT-4 26.9 µM | A549 31.9 µM | HT-29 32.3 µM | SF-539 30.7 µM | M14 34 µM | EKVX 26.6 µM | SF-268 43.3 µM | NCI-H460 30 µM | BT-549 43.2 µM | A498 64.7 µM | HCC 2998 31.6 µM | SNB-75 42.9 µM | NCI-H522 21.1 µM | UACC-62 40.6 µM | T47D 54.5 µM | DU-145 76.4 µM

Nc1nccc(NCC2(CO)CCC2)n1
inactive: UO-31 > 100 µM | HOP-92 > 100 µM | MOLT-4 > 100 µM | A549 > 100 µM | HT-29 > 100 µM | RPMI-8226 > 100 µM | SF-539 > 100 µM | EKVX > 100 µM | SF-268 > 100 µM | NCI-H460 > 100 µM | BT-549 > 100 µM | A498 > 100 µM | HCC 2998 > 100 µM | SNB-75 > 100 µM | NCI-H522 > 100 µM | UACC-62 > 100 µM | T47D > 100 µM | DU-145 > 100 µM
